From the NIST ThermoML archive (doi:10.1016/j.tca.2016.07.005)

Assays:
[1] = 101.3 kPa, Liquid; for viscosity: Concentric cylinders viscometry; for mass density: Vibrating tube method
[2] = xn = mol fraction of the nth substance listed; conditions: 101.3 kPa, Liquid, x1 = 1; for viscosity: Concentric cylinders viscometry; for mass density: Vibrating tube method

CCCC[n+]1ccn(C)c1.O=S(=O)([N-]S(=O)(=O)C(F)(F)F)C(F)(F)F
[1]
Conditions	mass density [kg/m3]	viscosity [mPa·s]
293.15 K	1441.2	64
298.15 K	1436.4	49.5
303.15 K	1431.5	39
313.15 K	1421.9	26.7
323.15 K	1412.4	20.1
333.15 K	1402.9	15.5
343.15 K	1393.5	12.4

CCCC[n+]1ccn(C)c1.O=S(=O)([N-]S(=O)(=O)C(F)(F)F)C(F)(F)F + O=S1(=O)CCCC1
[2]
Conditions	mass density [kg/m3]	viscosity [mPa·s]
293.15 K	1441.2	64
298.15 K	1436.4	49.5
303.15 K	1431.5	39
313.15 K	1421.9	26.7
323.15 K	1412.4	20.1
333.15 K	1402.9	15.5
343.15 K	1393.5	12.4

OCC(O)CO [glycerol]
[1]
Conditions	mass density [kg/m3]	viscosity [mPa·s]
313.15 K	1249	303
323.15 K	1242.4	139.3
333.15 K	1235.7	85.5
343.15 K	1228.9	50.5
353.15 K	1221.9	31.2
363.15 K	1214.8	19.9

OCC(O)CO [glycerol] + O=S1(=O)CCCC1
[2]
Conditions	mass density [kg/m3]	viscosity [mPa·s]
313.15 K	1249	303
323.15 K	1242.4	139.3
333.15 K	1235.7	85.5
343.15 K	1228.9	50.5
353.15 K	1221.9	31.2
363.15 K	1214.8	19.9

O=S1(=O)CCCC1 [sulfolane]
[1]
Conditions	mass density [kg/m3]	viscosity [mPa·s]
298.15 K	1266.4	11.9
303.15 K	1259.4	10.5
313.15 K	1251.7	8.1
323.15 K	1244	6.4
333.15 K	1235.4	5.2
343.15 K	1225	4.3
353.15 K	1215	3.7
363.15 K	1206	3.2
